# Entries after “also recorded” stand apart in the source; their conditions may differ. Ends that are not written are not given here.
# How the values were obtained:
# Staph. aureus DPC5245 = experiment: Deferred antagonism assay; assay type: cell-based; conditions: producing strain; diameter of zone minus 5 mm; average of duplicates; St. aureus DPC5245
# Experimental: (§1) Deferred antagonism assays were performed by replicating strains on GM17 or GM17 x-gal agar plates and allowing them to grow overnight before overlaying with either GM17/BHI/TS/MH agar (0.75% w/v agar) seeded with the appropriate indicator strain. Zone size was calculated as the diameter of the zone of clearing minus the diameter of bacterial growth (5 mm) For higher throughput screening of N20PXX, XM21VX, XXK22T and XXX banks deferred antagonism assays were performed by replicating strains using a 96 pin replicator (Boekel) or spotting 5 μl of a fresh overnight culture on GM17 agar plates and allowing them to grow overnight. […] Additional sets of indicators were employed to further assess/reassess the bioactivity of a number of strains. […] For well-diffusion assays molten agar was cooled to 48° C. and seeded with the appropriate indicator strain. The inoculated medium was rapidly transferred into sterile Petri plates in 50 ml volumes, allowed to solidify and dried. Wells (4.6 mm in diameter) were then made in the seeded plates. Purified nisin and mutant nisins were resuspended in 0.005% acetic acid, serially diluted, 50 μl volumes were dispensed into the aforementioned wells and the plates incubated at 37° C. overnight. Bioactivity was expressed as arbitrary units/ml (AU/ml) and calculated as the reciprocal of the highest dilution that gave a definite zone multiplied by the conversion factor (i.e. 20 when 50 μl was used) (Ryan et al., 1996).
# (§2) As a consequence of the enhanced activities of K22T and K22S, a more in-depth investigation of this region was carried out. Saturation mutagenesis was undertaken to create a bank of nisin A hinge derivatives containing the vast majority of possible amino acid substitutions for each position. Although pPTPL was used successfully for random mutagenesis, its relatively large size of approx 10.5 kb was considered unsuitable for the complete plasmid PCR amplification approach utilized for saturation mutagenesis. A smaller (approx 6 kb) E. coli-L. lactis shuttle vector pCI372 was considered to be potentially more useful. Its suitability with respect to the in trans expression of nisA was confirmed by the ability of pDFO5 to restore the nisin positive phenotype. Saturation mutagenesis was performed on each codon using pDF05 and oligonucleotides (Table 5) that replace the specific codon with a NNK triplet, potentially encoding all 20 standard amino acids. Following complete plasmid amplification and introduction into the intermediate Top10 host, sequence analysis of a pooled bank of pDF05 derivatives confirmed randomization. Introduction of these variants into L. lactis NZ9800 allowed the expression of mutant nisin A peptides for further analysis. […] 46 residue conversions were isolated. All strains, regardless of bioactivity, were assessed with a view to comprehensively assessing the consequences of each individual hinge alteration.
# (§3) Values are an average of duplicate experiments and represent zone size (diameter of zone minus diameter of bacterial growth (i.e. 5 mm) relative to that of the NZ9800 pCI372nisA control. X=Mutants not identified.
# [1] = tested on: Staph. aureus ST528 (MRSA); experiment: Deferred antagonism assay; assay type: cell-based; conditions: producing strain, diameter of zone minus diameter of bacterial growth (5 mm), average of duplicates
# Experimental: as §1, §2, §3
# [2] = tested on: Strep. agalactiae ATCC13813; experiment: Deferred antagonism assay; assay type: cell-based; conditions: producing strain, diameter of zone minus 5 mm, average of duplicates
# Experimental: as §1, §2, §3
# L. monocytogenes CBC1 = experiment: Deferred antagonism assay; assay type: cell-based, Listeria monocytogenes; parameters: key: + = Enhanced bioactivity relative to control; − = Bioactivity equal to or less than control; NA = no activity evident; conditions: L. mono CBC1; XX and XXX hinge mutant producers
# Experimental: as §1, §2
# L. monocytogenes CBC2 = experiment: Deferred antagonism assay; assay type: cell-based, Listeria monocytogenes; parameters: key: + = Enhanced bioactivity relative to control; − = Bioactivity equal to or less than control; NA = no activity evident; conditions: L. mono CBC2; XX and XXX hinge mutant producers
# Experimental: as §1, §2
# L. monocytogenes CBC3 = experiment: Deferred antagonism assay; assay type: cell-based, Listeria monocytogenes; parameters: key: + = Enhanced bioactivity relative to control; − = Bioactivity equal to or less than control; NA = no activity evident; conditions: L. mono CBC3; XX and XXX hinge mutant producers
# Experimental: as §1, §2
# L. lactis CBC7 = experiment: Deferred antagonism assay; assay type: cell-based; parameters: key: + = Enhanced bioactivity relative to control; − = Bioactivity equal to or less than control; NA = no activity evident; conditions: XX and XXX hinge mutant producers
# Experimental: as §1, §2
# L. lactis CBC8 = experiment: Deferred antagonism assay; assay type: cell-based; parameters: key: + = Enhanced bioactivity relative to control; − = Bioactivity equal to or less than control; NA = no activity evident; conditions: XX and XXX hinge mutant producers
# Experimental: as §1, §2
# S. aureus CBC4 = experiment: Deferred antagonism assay; assay type: cell-based; parameters: key: + = Enhanced bioactivity relative to control; − = Bioactivity equal to or less than control; NA = no activity evident; conditions: XX and XXX hinge mutant producers
# Experimental: as §1, §2
# L. plantarum CBC6 = experiment: Deferred antagonism assay; assay type: cell-based, Lactobacillus plantarum; parameters: key: + = Enhanced bioactivity relative to control; − = Bioactivity equal to or less than control; NA = no activity evident; conditions: XX and XXX hinge mutant producers
# Experimental: as §1, §2
# indicator strains = experiment: Deferred antagonism assays, various indicator strains (summary); assay type: cell-based; conditions: for Target strain against which the hinge mutant was selected for enhanced bioactivity: XX and XXX banks, L. lactis HP*: enhanced or equal; for Target strain against which the hinge mutant was selected for enhanced bioactivity / Strain(s) against which the derivative (producing strain) displays enhanced bioactivity: relative to nisin A-producing control; for number of targets with enhanced activity: of the 8 additional targets tested; for Strain(s) against which the derivative (producing strain) displays enhanced bioactivity: value = strains listed
# Experimental: as §1
Substance,zone size relative to that of the NZ9800 pCI372nisA control (Staph. aureus DPC5245) [%],zone size relative to that of the NZ9800 pCI372nisA control [1] [%],zone size relative to that of the NZ9800 pCI372nisA control [2] [%],bioactivity relative to a nisin A-producing control (L. monocytogenes CBC1),bioactivity relative to a nisin A-producing control (L. monocytogenes CBC2),bioactivity relative to a nisin A-producing control (L. monocytogenes CBC3),bioactivity relative to a nisin A-producing control (L. lactis CBC7),bioactivity relative to a nisin A-producing control (L. lactis CBC8),bioactivity relative to a nisin A-producing control (S. aureus CBC4),bioactivity relative to a nisin A-producing control (L. plantarum CBC6),Target strain against which the hinge mutant was selected for enhanced bioactivity (indicator strains),number of targets with enhanced activity (indicator strains),Strain(s) against which the derivative (producing strain) displays enhanced bioactivity (indicator strains)
"K22E: nisin A derivative, hinge substitution K22E; no detectable production (ITSISLCTPGCKTGALMGCNMETATCHCSIHVSK; cysteine pairing not given here; also: lantibiotic nisin-A; UniProt P13068 24-57, looked up, variant K22E)",0,0,0,,,,,,,,,,
NisinA PMQ,,,,−,−,+,+,+,+,−,Strep. agalactiae ATCC 13813/B. cereus UCC1,4,"S. agalactiae ATCC13813, B. cereus UCC1, L. monocytogenes CBC3, S. aureus CBC4 , and L. lactis CBC7 , CBC8; also recorded: S. agalactiae ATCC13813, B. cereus UCC1, L. mono CBC3,"
NisinA PMT,,,,−,−,−,−,−,−,−,Staph. aureus RF122,,S. aureus RF122
"NisinA PNR (ITSISLCTPGCKTGALMGCPNRTATCHCSIHVSK; not fully specified (bridges); also: lantibiotic nisin-A: lanthionine rings and dehydrated residues, places not given here; UniProt P13068 24-57, looked up, variant N20P M21N K22R) [nisin A hinge variant PNR (i.e. N20P, M21N, K22R)]",,,,−,−,−,−,−,−,−,Staph. aureus RF122,,S. aureus RF122
NisinA PSL,,,,−,−,−,−,−,−,−,C. sporogenes UCC1/Staph. aureus RF122,,C. sporogenes UCC1 and S. aureus RF122
NisinA PTA,,,,−,−,−,−,−,−,−,C. sporogenes UCC1,,C. sporogenes UCC1
"NisinA PTL (ITSISLCTPGCKTGALMGCPTLTATCHCSIHVSK; thioether (positions not given here); not fully specified (residues 2, 5, 33, bridges); also: lantibiotic nisin A, thioether rings and dehydro residues not given here; UniProt P13068 24-57, looked up, variant N20P M21T K22L) [nisin A hinge variant PTL (i.e. N20P, M21T, K22L)]",,,,−,−,+,+,−,+,−,C. sporogenes UCC1,3,"C. sporogenes UCC1, L. monocytogenes CBC3 and CBC 4 , and L. lactis CBC7; also recorded: C. sporogenes UCC1, L mono CBC3, 4, L. lactis CBC7"
"NisinA QLT (ITSISLCTPGCKTGALMGCQLTTATCHCSIHVSK; not fully specified (bridges); also: lantibiotic nisin-A: lanthionine rings and dehydrated residues, places not given here; UniProt P13068 24-57, looked up, variant N20Q M21L K22T) [nisin A hinge variant QLT (i.e. N20Q, M21L, K22T)]",,,,−,−,−,−,−,−,−,Strep. agalactiae ATCC 13813,,S. agalactiae ATCC13813
"NisinA SVA (ITSISLCTPGCKTGALMGCSVATATCHCSIHVSK; not fully specified (bridges); also: lantibiotic nisin-A: lanthionine rings and dehydrated residues, places not given here; UniProt P13068 24-57, looked up, variant N20S M21V K22A) [nisin A hinge variant SVA (i.e. N20S, M21V, K22A)]",,,,−,+,+,+,+,+,−,C. sporogenes UCC1,5,"C. sporogenes UCC1, L. monocytogenes CBC2 , CBC3, S. aureus CBC4 and L. lactis CBC7 , CBC8; also recorded: C. sporogenes UCC1, L. mono CBC2, CBC3, S. aureus"
